# Measurements from publication PMC11129975, “A first-in-human phase I study of TAS-117, an allosteric AKT inhibitor, in patients with advanced solid tumors” (Cancer Chemotherapy and Pharmacology, 2024).
# Like-named read-outs stand apart in the source and are kept apart here. Marks after values point to notes of the source that are not given here.
# How the values were obtained:
# [1] = parameters: method as in data on file, Taiho Pharmaceutical Co., Ltd.; details: ref data on file, Taiho Pharmaceutical Co., Ltd., cited from earlier work
# KPL-4 = details: oral dosing; KPL-4 (HER2 amplification, PIK3CA mutation); cited from earlier work
# [2] = Plasma and urine pharmacokinetics of TAS-117 in patients; assay type: in vivo, human
# Experimental: Blood samples for pharmacokinetic analysis were collected immediately prior to dosing (0 h) and at 0.5, 1, 2, 3, 4, 6, 8, 12, and 24 h post-dose on Day 1 and Day 21 of Cycle 1 for patients in the DEP (QD dosing). For patients who received intermittent dosing regimens, blood was collected immediately prior to dosing (0 h) and at 1, 2, 3, 4, 6, 8, 10, and 24 h post-dose on Cycle 1 Day 1; immediately prior to dosing (0 h) on Cycle 1 Days 3, 4, and 8; and immediately prior to dosing (0 h) and at 1, 2, 3, 4, 6, 8, 10, 24, 48, and 96 h post-dose on Cycle 1 Day 18. Urine samples for pharmacokinetic analysis were collected immediately prior to dosing (single sample collection) and from 0 to 6 h and from 6 to 12 h and 12 to 24 h post-dose on Day 1 of Cycle 1 for both QD and intermittent dosing. Blood samples for pharmacodynamic analysis were collected at pre-dose and 4, 8, and 24 h post-dose on Cycle 1 Day 1, and at pre-dose and 4 h post-dose on Cycle 1 Day 21 (QD dosing) or Cycle 1 Day 18 (intermittent dosing).
# Descriptive data were used to summarize safety data and antitumor activity. Pharmacokinetic parameters were derived using non-compartmental analysis and summarized descriptively by dose level, study day, and study phase. […] The accumulation of TAS-117 was assessed by comparing pharmacokinetic parameters on Day 1 and Day 21 (QD) or Day 18 (intermittent dosing). Pharmacodynamic data were presented using summary statistics of the ratio of pPRAS40/total PRAS40 to baseline values (pre-dose) on Day 1 and Day 18 or 21, by dose level and treatment regimen. Pharmacogenomics data were summarized, and the relevance between biomarkers and efficacy was analyzed using Fisher’s Exact test.
# P-values < 0.05 were considered significant. Missing data were not imputed, and analyses were performed using all available data. Plasma pharmacokinetic parameters were evaluated using Phoenix® WinNonlin® software (Pharsight Corporation as part of Certara, Princeton, NJ, US, Version 8.1 or 8.3). Statistical analyses were performed using SAS version 9.4 (SAS Institute; Cary, NC, US).
# [3] = tested on: multiple tumor cell lines derived from human cancers; parameters: method as in data on file, Taiho Pharmaceutical Co., Ltd.; details: breast, ovarian, gastric, endometrial and myeloma lines; ref data on file, Taiho Pharmaceutical Co., Ltd.; cited from earlier work
# [4] = parameters: method as in data on file, Taiho Pharmaceutical Co., Ltd.; details: repeated dosing; ref data on file, Taiho Pharmaceutical Co., Ltd.; cited from earlier work
# [5] = DEP, Cycle 1 Day 1, 8 mg QD, n = 1
# [6] = DEP, Cycle 1 Day 1, 16 mg QD, n = 6
# [7] = DEP, Cycle 1 Day 1, 24 mg QD, n = 3
# [8] = DEP, Cycle 1 Day 1, 24 mg QD, n = 2
# [9] = DEP, Cycle 1 Day 21, 8 mg QD, n = 1
# [10] = DEP, Cycle 1 Day 21, 16 mg QD, n = 3
# [11] = DEP, Cycle 1 Day 21, 16 mg QD, n = 2
# [12] = DEP, Day 21 vs Day 1, 16 mg QD, n = 3
# [13] = RMP, Cycle 1 Day 1, 24 mg intermittent dosing (4 days on/3 days off), n = 6
# [14] = RMP, Cycle 1 Day 1, 24 mg intermittent dosing (4 days on/3 days off), n = 5
# [15] = RMP, Cycle 1 Day 1, 32 mg intermittent dosing (4 days on/3 days off), n = 4
# [16] = RMP, Cycle 1 Day 18, 24 mg intermittent dosing (4 days on/3 days off), n = 5
# [17] = RMP, Cycle 1 Day 18, 32 mg intermittent dosing (4 days on/3 days off), n = 1
# [18] = RMP, Day 18 vs Day 1, 24 mg intermittent dosing, n = 5
# [19] = RMP, Day 18 vs Day 1, 32 mg intermittent dosing, n = 1
smiles,measurement,setting,value
C[C@]1(O)C[C@@](N)(c2ccc(-c3nc4n(c3-c3ccccc3)COc3ccncc3-4)cc2)C1 [TAS-117],Highest non-severely toxic dose,[1]; 4-week repeated oral dose,1.2 mg/kg/day
same,Toxicity findings,[1]; repeated dosing,dysregulation of carbohydrate metabolism and atrophic changes in the lymphatic/hematopoietic organs and adipocytes
same,Antitumor activity,KPL-4,demonstrated single-agent antitumor activity
same,"Dose proportionality of Cmax, AUClast and AUC0–24",[2]; 8 to 32 mg dose range,dose proportional
same,AUC0–24,[2]; [5],164 ng·h/mL
same,AUClast,[2]; [5],165 ng·h/mL
same,CLr,[2]; [5],4.11 L/h
same,Cmax,[2]; [5],8.82 ng/mL
same,t1/2,[2]; [5],21.96 h
same,tmax,[2]; [5],1.93 h
same,Fe,"[2]; DEP, Cycle 1 Day 1, 8 mg QD, n = 1, urinary excretion rate as percentage of dose",8.45%
same,"AUC0–24, Mean (SD)",[2]; [6],315 (73) ng·hr/mL
same,"AUC0–24, gMean",[2]; [6],308 ng·h/mL
same,"AUClast, Mean (SD)",[2]; [6],316 (73) ng·hr/mL
same,"AUClast, gMean",[2]; [6],308 ng·h/mL
same,"CLr, Mean (SD)",[2]; [6],5.20 (2.19) L/h
same,"CLr, gMean",[2]; [6],4.78 L/h
same,"Cmax, Mean (SD)",[2]; [6],25.1 (7.66) ng/mL
same,"Cmax, gMean",[2]; [6],24.1 ng/mL
same,"Fe, Mean (SD)",[2]; [6],10.43 (4.94) %
same,"Fe, gMean",[2]; [6],9.20%
same,"t1/2, Mean (SD)",[2]; [6],26.98 (6.06) h
same,"t1/2, gMean",[2]; [6],26.40 h
same,"tmax, median (min, max)",[2]; [6],"2.98 (1.88, 3.89)^c h"
same,"AUC0–24, Mean (SD)",[2]; [7],438 (194) ng·hr/mL
same,"AUC0–24, gMean",[2]; [7],407 ng·h/mL
same,"AUClast, Mean (SD)",[2]; [7],438 (193) ng·hr/mL
same,"AUClast, gMean",[2]; [7],408 ng·h/mL
same,"CLr, Mean (SD)",[2]; [7],6.39 (2.72) L/h
same,"CLr, gMean",[2]; [7],6.04 L/h
same,"Cmax, Mean (SD)",[2]; [7],31.0 (15.7) ng/mL
same,"Cmax, gMean",[2]; [7],28.6 ng/mL
same,"Fe, Mean (SD)",[2]; [7],10.48 (2.73) %
same,"Fe, gMean",[2]; [7],10.25%
same,"tmax, median (min, max)",[2]; [7],"3.98 (3.92, 6.00)^c h"
same,"t1/2, Mean (SD)",[2]; [8],23.06 (NC)^d h
same,"t1/2, gMean",[2]; [8],22.61^d h
same,AUClast,[2]; [9],604 ng·h/mL
same,Cmax,[2]; [9],33.1 ng/mL
same,tmax,[2]; [9],7.85 h
same,"AUC0–24, Mean (SD)",[2]; [10],865 (216) ng·hr/mL
same,"AUC0–24, gMean",[2]; [10],846 ng·h/mL
same,"AUClast, Mean (SD)",[2]; [10],864 (220) ng·hr/mL
same,"AUClast, gMean",[2]; [10],844 ng·h/mL
same,"Cmax, Mean (SD)",[2]; [10],61.4 (22.2) ng/mL
same,"Cmax, gMean",[2]; [10],58.3 ng/mL
same,"tmax, median (min, max)",[2]; [10],"1.93 (1.87, 2.02)^c h"
same,"t1/2, Mean (SD)",[2]; [11],41.65 (NC)^d h
same,"t1/2, gMean",[2]; [11],41.23^d h
same,Observed accumulation ratio of Cmax,"[2]; DEP, Day 21 vs Day 1, 8 mg QD, n = 1",3.75
same,"Observed accumulation ratio of AUC0–24, Mean (SD)",[2]; [12],2.84 (0.04)
same,"Observed accumulation ratio of AUC0–24, gMean",[2]; [12],2.83
same,"Observed accumulation ratio of Cmax, Mean (SD)",[2]; [12],2.71 (0.48)
same,"Observed accumulation ratio of Cmax, gMean",[2]; [12],2.69
same,"AUC0–24, Mean (SD)",[2]; [13],543 (108) ng·hr/mL
same,"AUC0–24, gMean",[2]; [13],534 ng·h/mL
same,"AUClast, Mean (SD)",[2]; [13],542 (107) ng·hr/mL
same,"AUClast, gMean",[2]; [13],533 ng·h/mL
same,"CLr, Mean (SD)",[2]; [13],4.55 (1.43) L/h
same,"CLr, gMean",[2]; [13],4.34 L/h
same,"Cmax, Mean (SD)",[2]; [13],42.1 (11.1) ng/mL
same,"Cmax, gMean",[2]; [13],40.9 ng/mL
same,"Fe, Mean (SD)",[2]; [13],10.02 (2.85) %
same,"Fe, gMean",[2]; [13],9.65%
same,"tmax, median (min, max)",[2]; [13],"3.28 (0.95, 4.15)^c h"
same,"t1/2, Mean (SD)",[2]; [14],31.92 (10.77)^e h
same,"t1/2, gMean",[2]; [14],30.44^e h
same,"AUC0–24, Mean (SD)",[2]; [15],770 (155) ng·hr/mL
same,"AUC0–24, gMean",[2]; [15],758 ng·h/mL
same,"AUClast, Mean (SD)",[2]; [15],774 (162) ng·hr/mL
same,"AUClast, gMean",[2]; [15],761 ng·h/mL
same,"CLr, Mean (SD)",[2]; [15],4.12 (1.82) L/h
same,"CLr, gMean",[2]; [15],3.80 L/h
same,"Cmax, Mean (SD)",[2]; [15],60 (18.4) ng/mL
same,"Cmax, gMean",[2]; [15],58.0 ng/mL
same,"Fe, Mean (SD)",[2]; [15],9.32 (2.71) %
same,"Fe, gMean",[2]; [15],9.01%
same,"t1/2, Mean (SD)",[2]; [15],24.02 (3.80) h
same,"t1/2, gMean",[2]; [15],23.81 h
same,"tmax, median (min, max)",[2]; [15],"2.43 (1.95, 4.03)^c h"
same,"AUC0–24, Mean (SD)",[2]; [16],1498 (500) ng·hr/mL
same,"AUC0–24, gMean",[2]; [16],1433 ng·h/mL
same,"AUClast, Mean (SD)",[2]; [16],3542 (1023) ng·hr/mL
same,"AUClast, gMean",[2]; [16],3420 ng·h/mL
same,"Cmax, Mean (SD)",[2]; [16],89.9 (37.4) ng/mL
same,"Cmax, gMean",[2]; [16],83.8 ng/mL
same,"t1/2, Mean (SD)",[2]; [16],49.31 (7.73) h
same,"t1/2, gMean",[2]; [16],48.83 h
same,"tmax, median (min, max)",[2]; [16],"2.00 (0.98, 5.92)^c h"
same,AUC0–24,[2]; [17],2105 ng·h/mL
same,AUClast,[2]; [17],5558 ng·h/mL
same,Cmax,[2]; [17],160 ng/mL
same,t1/2,[2]; [17],49.63 h
same,tmax,[2]; [17],1.00 h
same,"Observed accumulation ratio of AUC0–24, Mean (SD)",[2]; [18],2.70 (0.37)
same,"Observed accumulation ratio of AUC0–24, gMean",[2]; [18],2.68
same,"Observed accumulation ratio of Cmax, Mean (SD)",[2]; [18],2.06 (0.73)
same,"Observed accumulation ratio of Cmax, gMean",[2]; [18],1.95
same,Observed accumulation ratio of AUC0–24,[2]; [19],2.69
same,Observed accumulation ratio of Cmax,[2]; [19],2.50
same,Steady state reached by,[2]; indicated by t1/2 data,≤ 8 days
same,Anti-proliferative activity,[3],strong anti-proliferative activity
same,Toxicity findings,[4],dysregulation of carbohydrate metabolism and atrophic changes in the lymphatic/hematopoietic organs and adipocytes
